Reference: PubChem BioAssay (NCI)
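Step 1: Grow cells in 96-well plates. Step 2: Expose to compound for 48 hours at 5 concentrations. Step 3: Interpolate endpoints linearly; if unreached, use highest concentration. GI50 = concentration required for 50% inhibition of growth. TGI: concentration producing complete growth inhibition.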

What was measured:
Experiment in all cases: NCI-60 cell line screen, 48 h
NCI/ADR-RES ovarian = tested on: NCI/ADR-RES ovarian
IGROV1 ovarian = tested on: IGROV1 ovarian
SF-268 CNS = tested on: SF-268 CNS
OVCAR-5 ovarian = tested on: OVCAR-5 ovarian
HT29 colon = tested on: HT29 colon
M14 melanoma = tested on: M14 melanoma
SK-MEL-2 melanoma = tested on: SK-MEL-2 melanoma
SK-MEL-28 melanoma = tested on: SK-MEL-28 melanoma
HCT-15 colon = tested on: HCT-15 colon
COLO 205 colon = tested on: COLO 205 colon

## O=C1/C=C/[C@@H](O)[C@@H]2C[C@@H](O)C[C@H]2/C=C/CCC[C@H](CO)O1
NCI/ADR-RES ovarian
  GI50: 3.17 µM
  TGI: > 100 µM
IGROV1 ovarian
  GI50: 4.2 µM
  TGI: > 100 µM
SF-268 CNS
  GI50: 1.33 µM
  TGI: > 100 µM
OVCAR-5 ovarian
  GI50: 4.19 µM
  TGI: > 100 µM
HT29 colon
  GI50: 942 nM
  TGI: 12.4 µM
M14 melanoma
  GI50: 2420 nM
  TGI: > 100 µM
SK-MEL-2 melanoma
  GI50: 2390 nM
  TGI: 5.95 µM
SK-MEL-28 melanoma
  GI50: 626 nM
  TGI: 3.65 µM
HCT-15 colon
  GI50: 3.62 µM
  TGI: > 100 µM
COLO 205 colon
  GI50: 1700 nM
  TGI: 3.32 µM

## CCC(c1ccc(OC)cc1)C(CC)c1ccc(O)c(CN2CCCC2)c1 (centres undefined)
NCI/ADR-RES ovarian
  GI50: 5.92 µM
  TGI: 22.3 µM
IGROV1 ovarian
  GI50: 8.63 µM
  TGI: 23.6 µM
SF-268 CNS
  GI50: 5.6 µM
  TGI: 21.5 µM
OVCAR-5 ovarian
  GI50: 12.3 µM
  TGI: 27.8 µM
HT29 colon
  GI50: 2180 nM
  TGI: 5.78 µM
M14 melanoma
  GI50: 2150 nM
  TGI: 5.08 µM
SK-MEL-2 melanoma
  GI50: 1950 nM
  TGI: 4.03 µM
SK-MEL-28 melanoma
  GI50: 2040 nM
  TGI: 4.57 µM
HCT-15 colon
  GI50: 3.09 µM
  TGI: 10.7 µM
COLO 205 colon
  GI50: 1810 nM
  TGI: 3.71 µM

## O=C1C(Cl)=C(Nc2cccc(O)c2)C(=O)N1c1cccc(Cl)c1
NCI/ADR-RES ovarian
  GI50: 64.1 µM
  TGI: > 100 µM
IGROV1 ovarian
  GI50: 18.3 µM
  TGI: 51.4 µM
SF-268 CNS
  GI50: 28.8 µM
  TGI: > 100 µM
OVCAR-5 ovarian
  GI50: 62.5 µM
  TGI: > 100 µM
HT29 colon
  GI50: 37300 nM
  TGI: > 100 µM
M14 melanoma
  GI50: 28800 nM
  TGI: > 100 µM
SK-MEL-2 melanoma
  GI50: 34700 nM
  TGI: > 100 µM
SK-MEL-28 melanoma
  GI50: 85700 nM
  TGI: > 100 µM
HCT-15 colon
  GI50: 39.1 µM
  TGI: > 100 µM
COLO 205 colon
  GI50: 56500 nM
  TGI: > 100 µM

## C=C1SC(=Nc2ccccc2Cl)N(C(=O)c2sc3ccccc3c2Cl)C1(C)C
NCI/ADR-RES ovarian
  GI50: 3.71 µM
  TGI: > 53 µM
IGROV1 ovarian
  GI50: 6.2 µM
  TGI: > 100 µM
SF-268 CNS
  GI50: 12.9 µM
  TGI: > 100 µM
OVCAR-5 ovarian
  GI50: 10.9 µM
  TGI: > 100 µM
HT29 colon
  GI50: 14200 nM
  TGI: 51.7 µM
M14 melanoma
  GI50: 21000 nM
  TGI: > 69.9 µM
SK-MEL-2 melanoma
  GI50: 8830 nM
  TGI: 31.9 µM
SK-MEL-28 melanoma
  GI50: 37200 nM
  TGI: > 100 µM
HCT-15 colon
  GI50: 4.94 µM
  TGI: > 57.5 µM
COLO 205 colon
  GI50: 3490 nM
  TGI: 11 µM

## C#Cc1cccc(Nc2ncnc3ccc(-c4cnc(Cl)c(NS(C)(=O)=O)c4)cc23)c1
NCI/ADR-RES ovarian
  GI50: 1.24 µM
  TGI: 10 µM
IGROV1 ovarian
  GI50: 0.075 µM
  TGI: 0.402 µM
SF-268 CNS
  GI50: 0.155 µM
  TGI: 1.67 µM
OVCAR-5 ovarian
  GI50: 0.329 µM
  TGI: 2.73 µM
HT29 colon
  GI50: 404 nM
M14 melanoma
  GI50: 368 nM
  TGI: 2.41 µM
SK-MEL-2 melanoma
  GI50: 296 nM
  TGI: 1.62 µM
SK-MEL-28 melanoma
  GI50: 182 nM
  TGI: 1.93 µM
HCT-15 colon
  GI50: 0.295 µM
  TGI: 1.97 µM
COLO 205 colon
  GI50: 648 nM
  TGI: 2.12 µM

## N=C1C(c2nc3ccccc3s2)=C(O)CN1c1ccc(Cl)cc1Cl
NCI/ADR-RES ovarian
  GI50: 13.5 µM
  TGI: 37.4 µM
IGROV1 ovarian
  GI50: 19.4 µM
  TGI: 46.9 µM
SF-268 CNS
  GI50: 89 µM
  TGI: > 100 µM
OVCAR-5 ovarian
  GI50: 34.8 µM
  TGI: > 100 µM
HT29 colon
  GI50: 16400 nM
  TGI: > 100 µM
M14 melanoma
  GI50: 23700 nM
  TGI: > 100 µM
SK-MEL-2 melanoma
  GI50: 27600 nM
  TGI: 96.6 µM
SK-MEL-28 melanoma
  GI50: 21000 nM
  TGI: > 100 µM
HCT-15 colon
  GI50: 3.65 µM
  TGI: 22 µM
COLO 205 colon
  GI50: 36600 nM
  TGI: > 100 µM

## NCC1OC(n2cnc3c(=O)[nH]c(N)nc32)C(O)C1O (centres undefined)
NCI/ADR-RES ovarian
  TGI: > 100 µM
IGROV1 ovarian
  TGI: > 100 µM
SF-268 CNS
  TGI: > 100 µM
OVCAR-5 ovarian
  TGI: > 100 µM
HT29 colon
  TGI: > 100 µM
M14 melanoma
  TGI: > 100 µM
SK-MEL-2 melanoma
  TGI: > 100 µM
SK-MEL-28 melanoma
  TGI: > 100 µM
HCT-15 colon
  TGI: > 100 µM
COLO 205 colon
  TGI: > 100 µM

## COC1CC2C=CC3C4OC2(/C(C)=C/C(C)C(C(C)O)OC1=O)C3C(O)C(C)C4OC(=O)c1ccc[nH]1 (centres undefined)
NCI/ADR-RES ovarian
  TGI: > 100 µM
IGROV1 ovarian
  TGI: > 100 µM
SF-268 CNS
  TGI: > 100 µM
OVCAR-5 ovarian
  TGI: > 100 µM
HT29 colon
  TGI: > 100 µM
M14 melanoma
  TGI: > 100 µM
SK-MEL-2 melanoma
  TGI: > 100 µM
SK-MEL-28 melanoma
  TGI: > 100 µM
HCT-15 colon
  TGI: > 100 µM
COLO 205 colon
  TGI: > 100 µM

## O=S(=O)(NCCCNc1cc(-c2cn(-c3ccccc3)nc2-c2cccc(O)c2)ccn1)c1cccc2ccccc12
NCI/ADR-RES ovarian
  GI50: 3.72 µM
  TGI: > 100 µM
IGROV1 ovarian
  GI50: 5.86 µM
  TGI: > 100 µM
SF-268 CNS
  GI50: 3.02 µM
  TGI: 40.8 µM
OVCAR-5 ovarian
  GI50: 8.43 µM
  TGI: > 100 µM
HT29 colon
  GI50: 508 nM
  TGI: 1.71 µM
M14 melanoma
  GI50: 2140 nM
  TGI: 5.3 µM
SK-MEL-2 melanoma
  GI50: 2450 nM
  TGI: 6.25 µM
SK-MEL-28 melanoma
  GI50: 2370 nM
  TGI: 7.33 µM
HCT-15 colon
  GI50: 1.8 µM
  TGI: 6.59 µM
COLO 205 colon
  GI50: 1690 nM
  TGI: 3.29 µM

## N/C(=N\c1nc2ccccc2s1)NC(=O)Nc1ccccc1Cl
NCI/ADR-RES ovarian
  GI50: 0.0643 µM
  TGI: 8.83 µM
IGROV1 ovarian
  GI50: 0.134 µM
  TGI: 21.6 µM
SF-268 CNS
  GI50: 0.832 µM
  TGI: > 44.2 µM
OVCAR-5 ovarian
  GI50: 0.379 µM
  TGI: 26.8 µM
HT29 colon
  GI50: 105 nM
  TGI: 6.31 µM
M14 melanoma
  GI50: 50.9 nM
  TGI: 2.14 µM
SK-MEL-2 melanoma
  GI50: 3240 nM
  TGI: > 61.3 µM
SK-MEL-28 melanoma
  GI50: 3590 nM
  TGI: > 100 µM
HCT-15 colon
  GI50: 0.0643 µM
  TGI: 18.9 µM
COLO 205 colon
  GI50: 151 nM
  TGI: 2.13 µM
